Consider 33 compounds from patent US9963434B2, “N-arylmethyl sulfonamide negative modulators of NR2A” (LUC THERAPEUTICS, priority 2013, dated 2018).

Read-outs that look alike come from different tables or passages of the source.

The test deals with NR1/NR2A (Homo sapiens (Human), UniProt Q05586+Q12879). Nature of the test: FDSS Ca2+ influx inhibition assay in HEK293 cells expressing NR1/NR2A. Conditions: 3 μM glutamate, 3 μM glycine, 1 mM Ca2+. The test is classed as cell-based. The method, boiled down:
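Fluo-8-loaded HEK293 NR1/NR2A cells preincubated 10 min with compound at 10 μM final (0.1% DMSO) in Ca2+/Mg2+-free HBSS with 20 mM HEPES. Stimulated with 3 μM glutamate, 3 μM glycine, 1 mM Ca2+; FDSS recording for 3 min, end/baseline fluorescence ratio compared with MK801.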

Setting [1] is: inhibition relative to MK801, read-out: NR2A IC50.

Sequence of NR1/NR2A (Q12879 23-1464, other chains not shown): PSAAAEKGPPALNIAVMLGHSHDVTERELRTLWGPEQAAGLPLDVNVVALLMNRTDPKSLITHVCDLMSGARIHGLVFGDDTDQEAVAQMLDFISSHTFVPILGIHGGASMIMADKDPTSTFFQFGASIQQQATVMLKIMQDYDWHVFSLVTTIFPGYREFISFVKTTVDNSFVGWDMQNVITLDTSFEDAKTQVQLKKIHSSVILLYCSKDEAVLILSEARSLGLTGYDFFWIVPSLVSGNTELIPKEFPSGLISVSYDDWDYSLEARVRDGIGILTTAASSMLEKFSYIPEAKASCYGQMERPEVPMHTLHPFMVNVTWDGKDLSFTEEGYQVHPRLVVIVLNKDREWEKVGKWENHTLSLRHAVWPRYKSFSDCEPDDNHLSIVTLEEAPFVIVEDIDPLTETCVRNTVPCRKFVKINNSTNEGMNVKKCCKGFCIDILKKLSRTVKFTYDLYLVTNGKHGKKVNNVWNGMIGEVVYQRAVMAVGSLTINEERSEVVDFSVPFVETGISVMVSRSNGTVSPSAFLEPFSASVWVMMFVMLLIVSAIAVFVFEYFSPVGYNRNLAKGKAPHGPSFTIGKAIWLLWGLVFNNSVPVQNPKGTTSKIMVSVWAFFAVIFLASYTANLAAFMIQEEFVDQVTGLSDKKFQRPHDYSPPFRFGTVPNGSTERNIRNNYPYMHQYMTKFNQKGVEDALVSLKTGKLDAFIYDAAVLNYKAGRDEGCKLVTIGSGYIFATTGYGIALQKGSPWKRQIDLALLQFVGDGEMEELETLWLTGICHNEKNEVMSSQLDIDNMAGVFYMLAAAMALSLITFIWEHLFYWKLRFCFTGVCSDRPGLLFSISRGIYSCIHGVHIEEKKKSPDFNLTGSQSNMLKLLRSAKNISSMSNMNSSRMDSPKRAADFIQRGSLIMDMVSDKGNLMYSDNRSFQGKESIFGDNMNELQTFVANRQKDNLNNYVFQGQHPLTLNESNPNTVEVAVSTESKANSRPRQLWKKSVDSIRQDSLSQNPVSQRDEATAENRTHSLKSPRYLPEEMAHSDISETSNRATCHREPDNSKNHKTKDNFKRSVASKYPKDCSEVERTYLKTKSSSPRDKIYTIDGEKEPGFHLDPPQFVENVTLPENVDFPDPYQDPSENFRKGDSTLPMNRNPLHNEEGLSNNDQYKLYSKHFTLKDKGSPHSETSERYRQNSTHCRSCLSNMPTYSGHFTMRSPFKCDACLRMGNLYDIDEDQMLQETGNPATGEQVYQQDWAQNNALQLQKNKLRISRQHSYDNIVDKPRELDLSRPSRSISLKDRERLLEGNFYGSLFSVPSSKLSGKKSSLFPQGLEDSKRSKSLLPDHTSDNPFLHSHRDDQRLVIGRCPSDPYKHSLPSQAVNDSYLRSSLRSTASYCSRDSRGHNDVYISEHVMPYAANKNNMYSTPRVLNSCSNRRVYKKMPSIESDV

On to `Cc1ncc(CNC(=O)c2ncc(CNS(=O)(=O)c3ccc(F)c(Cl)c3)cn2)s1` [5-(3-chloro-4-fluorobenzenesulfon-amidomethyl)-N-[(2-methyl-1,3-thiazol-5-yl)methyl]pyrimidine-2-carboxamide], for which the IC50 reads like this: under setting [1], 10 µM; (read-out: Binned Activity) more than 10 µM.

`Cc1ncc(C(C)NC(=O)c2cnc(CNS(=O)(=O)c3ccc(F)c(Cl)c3)cn2)s1` (stereo not drawn) [5-(3-chloro-4-fluorobenzenesulfon-amidomethyl)-N-[1-(2-methyl-1,3-thiazol-5-yl)ethyl]pyrazine-2-carboxamide]: the IC50 (read-out: Binned Activity) was in the range of 0.1 to 1 µM.

As to `COc1ccc(CNC(=O)c2ccc(CNS(=O)(=O)c3ccc(F)c(Cl)c3)cn2)cn1` [5-(3-chloro-4-fluorobenzenesulfon-amidomethyl)-N-[(6-methoxypyridin-3-yl)methyl]pyridine-2-carboxamide], the IC50 (read-out: Binned Activity) is 1 to 10 µM.

Regarding `Cc1ncc(CNC(=O)c2ccc(CNS(=O)(=O)c3ccc(C(F)(F)F)cc3)cn2)s1` [N-[(2-methyl-1,3-thiazol-5-yl)methyl]-5-[4-(trifluoromethyl)benzene-sulfonamidomethyl] pyridine-2-carboxamide], the IC50 is, setting by setting: under setting [1], 10 µM; (read-out: Binned Activity) more than 10 µM.

As for `CC(NC(=O)c1ccc(CNS(=O)(=O)c2ccc(F)c(Cl)c2)nn1)c1cccs1` (stereo not drawn) [6-(3-chloro-4-fluorobenzenesulfon-amidomethyl)-N-[1-(thiophen-2-yl)ethyl]pyridazine-3-carboxamide], the IC50 was 10 µM under setting [1] and more than 10 µM (read-out: Binned Activity).

`Cc1ncc(CNC(=O)c2ccc(CNS(=O)(=O)c3ccc(C(F)(F)F)nc3)cn2)s1` [N-[(2-methyl-1,3-thiazol-5-yl)methyl]-5-[6-(trifluoromethyl)pyridine-3-sulfonamidomethyl] pyridine-2-carboxamide]: the IC50 is, setting by setting: under setting [1], 10 µM; (read-out: Binned Activity) more than 10 µM.

In the case of `Cc1ncc(CNC(=O)c2ccc(CNS(=O)(=O)c3ccc(F)c(Cl)c3)cn2)s1` [5-(3-chloro-4-fluorobenzenesulfon-amidomethyl)-N-[(2-methyl-1,3-thiazol-5-yl)methyl]pyridine-2-carboxamide], the IC50 (read-out: Binned Activity) was 0.1 to 1 µM.

Take `Cc1nc(C)c(CNC(=O)c2cnc(CNS(=O)(=O)c3ccc(F)c(Cl)c3)cn2)s1` [5-(3-chloro-4-fluorobenzenesulfon-amidomethyl)-N-[(dimethyl-1,3-thiazol-5-yl)methyl]pyrazine-2-carboxamide]: the IC50 by setting is: under setting [1], 10 µM; (read-out: Binned Activity) more than 10 µM.

As to `Cc1csc(CNC(=O)c2cnc(CNS(=O)(=O)c3ccc(F)c(Cl)c3)cn2)n1` [5-(3-chloro-4-fluorobenzenesulfon-amidomethyl)-N-[(4-methyl-1,3-thiazol-2-yl)methyl]pyrazine-2-carboxamide], the IC50 under setting [1] is 10 µM.

Consider `COc1cc(CNC(=O)c2ccc(CNS(=O)(=O)c3ccc(F)c(Cl)c3)nc2)ccn1` [6-(3-chloro-4-fluorobenzenesulfon-amidomethyl)-N-[(2-methoxypyridin-4-yl)methyl]pyridine-3-carboxamide], for which the IC50 was 10 µM under setting [1] and more than 10 µM (read-out: Binned Activity).

Take `Cc1ncc(CNC(=O)c2cnc(CNC(=O)c3cc(F)cc(F)c3)cn2)s1` [5-{[(3,5-difluorophenyl)form-amido]methyl}-N-[(2-methyl-1,3-thiazol-5-yl)methyl]pyrazine-2-carboxamide]: the IC50 reads like this: under setting [1], 10 µM; (read-out: Binned Activity) more than 10 µM.

For `Cc1ncc(CNC(=O)c2ccc(CNS(=O)(=O)c3cccs3)cn2)s1` [N-[(2-methyl-1,3-thiazol-5-yl)methyl]-5-(thiophene-2-sulfonamidomethyl) pyridine-2-carboxamide], for the setting “read-out: Binned Activity”, the IC50 was 1 to 10 µM.

Take `Cc1ncc(CNC(=O)c2cnc(CNS(=O)(=O)c3ccc(F)c(Cl)c3)c(C)n2)s1` [5-(3-chloro-4-fluorobenzenesulfon-amidomethyl)-6-methyl-N-[(2-methyl-1,3-thiazol-5-yl)methyl]pyrazine-2-carboxamide]: for the setting “read-out: Binned Activity”, the IC50 is less than 0.1 µM.

For `Cc1ncc(CNC(=O)c2ccc(CNS(=O)(=O)c3cc(Cl)cc(Cl)c3)cn2)s1` [5-(3,5-dichlorobenzenesulfon-amidomethyl)-N-[(2-methyl-1,3-thiazol-5-yl)methyl]pyridine-2-carboxamide], the IC50 runs as follows: under setting [1], 10 µM; (read-out: Binned Activity) more than 10 µM.

With `O=C(NCc1cncnc1)c1ccc(CNS(=O)(=O)c2ccc(F)c(Cl)c2)cn1` [5-(3-chloro-4-fluorobenzenesulfon-amidomethyl)-N-(pyrimidin-5-ylmethyl)pyridine-2-carboxamide], the IC50 (read-out: Binned Activity) is 1 to 10 µM.

`Cc1cc(CNC(=O)c2cnc(CNS(=O)(=O)c3ccc(F)c(Cl)c3)cn2)n(C)n1` [5-(3-chloro-4-fluorobenzenesulfon-amidomethyl)-N-[(1,3-dimethyl-1H-pyrazol-5-yl)methyl]pyrazine-2-carboxamide]: the IC50 under setting [1] is 10 µM and the IC50 (read-out: Binned Activity) is more than 10 µM.

Consider `O=C(NCc1cncs1)c1cnc(CNS(=O)(=O)c2ccc(F)c(Cl)c2)cn1` [5-(3-chloro-4-fluorobenzenesulfon-amidomethyl)-N-(1,3-thiazol-5-ylmethyl)pyrazine-2-carboxamide], for which the IC50 (read-out: Binned Activity) lay in the range of 0.1 to 1 µM.

As to `Cc1ncc(CNC(=O)c2ccc(CNC(=O)c3ccc(Cl)cc3Cl)cn2)s1` [5-{[(2,4-dichlorophenyl)form-amido]methyl}-N-[(2-methyl-1,3-thiazol-5-yl)methyl]pyridine-2-carboxamide], the IC50 reads like this: under setting [1], 10 µM; (read-out: Binned Activity) more than 10 µM.

Turning to `Cc1cnc(CNC(=O)c2ccc(CNS(=O)(=O)c3ccc(F)c(Cl)c3)nc2)cn1` [6-(3-chloro-4-fluorobenzenesulfon-amidomethyl)-N-[(5-methylpyrazin-2-yl)methyl]pyridine-3-carboxamide], the IC50 (read-out: Binned Activity) is 0.1 to 1 µM.

Consider `Cc1ncc(CNC(=O)c2cnc(CNS(=O)(=O)c3cc(Cl)ccc3F)c(C)n2)s1` [5-(5-chloro-2-fluorobenzenesulfon-amidomethyl)-6-methyl-N-[(2-methyl-1,3-thiazol-5-yl)methyl]pyrazine-2-carboxamide], for which the IC50 (read-out: Binned Activity) lay within 1 to 10 µM.

As for `O=C(NCc1ccno1)c1ccc(CNS(=O)(=O)c2ccc(F)c(Cl)c2)nc1` [6-(3-chloro-4-fluorobenzenesulfon-amidomethyl)-N-(1,2-oxazol-5-ylmethyl)pyridine-3-carboxamide], the IC50 was 10 µM under setting [1] and more than 10 µM (read-out: Binned Activity).

For the compound `O=C(NCc1cncs1)c1ccc(CNS(=O)(=O)c2ccc(F)c(Cl)c2)nc1` [6-(3-chloro-4-fluorobenzenesulfon-amidomethyl)-N-(1,3-thiazol-5-ylmethyl)pyridine-3-carboxamide], the IC50 by setting is: under setting [1], 10 µM; (read-out: Binned Activity) more than 10 µM.

With `Cc1ncc(CNC(=O)c2cnc(CNC(=O)c3ccc(Cl)c(Cl)c3)cn2)s1` [5-{[(3,4-dichlorophenyl)form-amido]methyl}-N-[(2-methyl-1,3-thiazol-5-yl)methyl]pyrazine-2-carboxamide], the IC50 was 10 µM under setting [1] and more than 10 µM (read-out: Binned Activity).

`O=C(NCc1cocn1)c1ccc(CNS(=O)(=O)c2ccc(F)c(Cl)c2)cn1` [5-(3-chloro-4-fluorobenzenesulfon-amidomethyl)-N-(1,3-oxazol-4-ylmethyl)pyridine-2-carboxamide]: the IC50 was 10 µM under setting [1] and more than 10 µM (read-out: Binned Activity).

In the case of `Cc1ncsc1CNC(=O)c1ccc(CNS(=O)(=O)c2ccc(F)c(Cl)c2)nn1` [6-(3-chloro-4-fluorobenzenesulfon-amidomethyl)-N-[(4-methyl-1,3-thiazol-5-yl)methyl]pyridazine-3-carboxamide], the IC50 reads like this: under setting [1], 10 µM; (read-out: Binned Activity) more than 10 µM.

In the case of `Cn1cc(CNC(=O)c2ccc(CNS(=O)(=O)c3ccc(F)c(Cl)c3)cn2)cn1` [5-(3-chloro-4-fluorobenzenesulfon-amidomethyl)-N-[(1-methyl-1H-pyrazol-4-yl)methyl]pyridine-2-carboxamide], under “read-out: Binned Activity”, the IC50 is 1 to 10 µM.

For `Cc1nc(CNC(=O)c2ccc(CNS(=O)(=O)c3ccc(F)c(Cl)c3)nn2)cs1` [6-(3-chloro-4-fluorobenzenesulfon-amidomethyl)-N-[(2-methyl-1,3-thiazol-4-yl)methyl]pyridazine-3-carboxamide], the IC50 is 10 µM under setting [1] and more than 10 µM (read-out: Binned Activity).

For the compound `O=C(NCc1cncnc1)c1cnc(CNS(=O)(=O)c2ccc(F)c(Cl)c2)cn1` [5-(3-chloro-4-fluorobenzenesulfon-amidomethyl)-N-(pyrimidin-5-ylmethyl)pyrazine-2-carboxamide], under “read-out: Binned Activity”, the IC50 lay within 1 to 10 µM.

With `Cc1ncc(CNC(=O)c2ccc(CNS(=O)(=O)c3cccc4cccnc34)cn2)s1` [N-[(2-methyl-1,3-thiazol-5-yl)methyl]-5-(quinoline-8-sulfonamidomethyl) pyridine-2-carboxamide], the IC50 runs as follows: under setting [1], 10 µM; (read-out: Binned Activity) more than 10 µM.

Consider `Cc1ncc(CNC(=O)c2ccc(CNS(=O)(=O)c3ccc(Oc4ccccc4)nc3)cn2)s1` [N-[(2-methyl-1,3-thiazol-5-yl)methyl]-5-(6-phenoxypyridine-3-sulfonamidomethyl) pyridine-2-carboxamide], for which the IC50 under setting [1] amounted to 10 µM and the IC50 (read-out: Binned Activity) is more than 10 µM.

In the case of `Cc1ncc(CNC(=O)c2ccc(CNS(=O)(=O)c3ccc(Cl)s3)cn2)s1` [5-(5-chlorothiophene-2-sulfonamidomethyl)-N-[(2-methyl-1,3-thiazol-5-yl)methyl]pyridine-2-carboxamide], the IC50 under setting [1] came to 10 µM and the IC50 (read-out: Binned Activity) is more than 10 µM.

As to `CN(C)CCCCNC(=O)c1ccc(CNS(=O)(=O)c2ccc(F)c(Cl)c2)nc1` [6-(3-chloro-4-fluorobenzenesulfon-amidomethyl)-N-[4-(dimethylamino)butyl] pyridine-3-carboxamide], the IC50 under setting [1] turned out to be 10 µM and the IC50 (read-out: Binned Activity) was more than 10 µM.

Consider `O=C(NCc1ncccc1C(F)(F)F)c1cnc(CNS(=O)(=O)c2ccc(F)c(Cl)c2)cn1` [5-(3-chloro-4-fluorobenzenesulfon-amidomethyl)-N-{[3-(trifluoromethyl)pyridin-2-yl]methyl}pyrazine-2-carboxamide], for which the IC50 reads like this: under setting [1], 10 µM; (read-out: Binned Activity) more than 10 µM.
